We go through three compounds from US20240197724A1, “THERAPEUTIC AGENT FOR GAIT DISTURBANCE” (NIPPON SHINYAKU CO., LTD., priority 2021, published 2024).

The test system of data set [1] is ischemic gait disturbance caused by ligation of the iliac artery. The experiment in a line: Gait improvement in rat ischemic gait disturbance model (iliac artery ligation, treadmill). In kind it is in vivo. The following applies: male Wistar rats, 3 mg/kg orally twice a day for 9 days from one day after surgery; measured 3, 7 and 10 days after surgery; p<0.01 vs control. As for the experimental part:
Wistar rats (male, 7 week-old) (available from CHARLES RIVER LABORATORIES JAPAN, INC.) were subjected to gait training using a treadmill (MK-680, available from Muromachi Kikai Co., Ltd.) for three consecutive days-6 days before surgery, 5 days before surgery, and 4 days before surgery. On the day before surgery, the pre-value of the walking distance was measured, the animals were divided into groups, and sham surgery or iliac artery ligation surgery described in i) below was performed. […] Walking time was measured 3 days, 7 days and 10 days after the surgery. Based on the measured walking time, the walking distance was calculated. • i) Method of Iliac Artery Ligation Surgery Rats were anesthetized by intraperitoneal administration of 50 mg/kg pentobarbital sodium (Somnopentyl®, Schering-Plough Animal Health). […] The ligation of the iliac artery was performed by the data manager and this information was not disclosed to the gait tester until the study was completed. • ii) Walking Time Measurement Method The speed of the treadmill belt was increased from 15 m/min to 35 m/min by increments of 5 m/min in each 3 minutes, and the time the rat got on the electrical stimulation plate at the rear end of the belt was recorded as the dropout time. […] After the measurement, the dropout time was recorded in the gait test record. […]

Data set [2] concerns FeCl3-induced thrombus in femoral artery. Nature of the data set: Antithrombotic effect in rat FeCl3-induced thrombus model. In kind it is in vivo. Conditions: male Wistar rats. As for the experimental part: Methylcellulose (METOLOSE, SM-400, Shin-Etsu Chemical Co., Ltd.) was dissolved in distilled water, to prepare a 0.5 w/v% methylcellulose aqueous solution. The 0.5 w/v% methylcellulose aqueous solution was added to the compound A, to prepare a 10 mg/mL suspension of compound A in the 0.5 w/v% methylcellulose aqueous solution. • (b) Beraprost Sodium The 0.5 w/v% methylcellulose aqueous solution was added to beraprost sodium, to prepare a 1.0 mg/mL aqueous solution of beraprost sodium in the 0.5 w/v% methylcellulose aqueous solution. • (c) Cilostazol The 0.5 w/v% methylcellulose aqueous solution was added to cilostazol, to prepare a 150 or 50 mg/mL suspension of cilostazol. Urethane (Wako Pure Chemical Industries, Ltd.) was dissolved in saline (Otsuka Pharmaceutical Factory, Inc.) to prepare a solution of 0.3 g/mL. The urethane saline solution was subcutaneously administered to rats at 4 mL per 1 kg of body weight (1.2 g/kg) to anesthetize them. […] Male Wistar rats aged 9 to 10 weeks were used as rats. The abdomen of the rat was incised to expose the duodenum, and drugs were injected 2 to 3 mm downstream from the vicinity of the gastric-duodenal boundary using a 26G injection needle and syringe. The compound A and beraprost sodium were administered at a dose of 1 mL/kg, and cilostazol was administered at a dose of 2 mL/kg. The skin on the right thigh of the rat was incised to expose the femoral artery, and the vein and nerve were dissected. A parafilm was placed under the dissected femoral artery to completely separate the femoral artery, vein, and nerve. A laser Doppler blood flowmeter (ALF21, Advance) probe was placed on the femoral artery to start measuring the blood flow (mL/min/g). 60 minutes after the administration for the compound A-administered group, 30 minutes after the administration for the beraprost sodium-administered group, and 120 minutes after the administration for the cilostazol-administered group, a filter paper (2 mm×5 mm) impregnated with a 10 w/w% FeCl3 aqueous solution was placed on the femoral artery, and changes in blood flow were measured using a biometric data processing system (FLO-WB, Omega Wave Co., Ltd.) and recorded.

In data set [3] the test system is gait disturbance in patient with arteriosclerosis obliterans. Nature of the data set: Improvement of gait disturbance in patients with arteriosclerosis obliterans (placebo-controlled, double-blind study). In kind it is in vivo, human. Conditions: Japanese patients, 0.1 to 1.6 mg twice a day for 24 to 36 weeks. Here is the method: As a placebo-controlled, double-blind comparative study, Japanese patients with arteriosclerosis obliterans (selected by resting ABI, or the like) received placebo or selexipag (which is compound A) at 0.1 to 1.6 mg twice a day for 24 to 36 weeks (dose adjustment period: 8 to 20 weeks, dose maintenance period: 16 weeks).

Turning to `CC(C)N(CCCCOCC(=O)NS(C)(=O)=O)c1cnc(-c2ccccc2)c(-c2ccccc2)n1` [compound A, 2-{4-[N-(5,6-diphenylpyrazine-2-yl)-N-isopropylamino]butyloxy}-N-(methylsulfonyl) acetamide], the “improvement of gait disturbance (walking distance, FIG. 1)” value in data set [1] was “significantly improved gait disturbance”. In addition, in data set [2] (10 mg/kg intraduodenal, administration 60 minutes before induction, vehicle control about 12 to 15 minutes), the vascular occlusion time entry is “about 22 minutes”. Also, the “improvement of gait disturbance (treadmill, maximum walking time, Gartner method)” value in data set [3] was “Improvement of patient's gait disturbance was confirmed”.
Regarding `O=C1CCc2cc(OCCCCc3nnnn3C3CCCCC3)ccc2N1` [cilostazol], the vascular occlusion time result in data set [2] (150 or 50 mg/mL suspension at 2 mL/kg intraduodenal, 120 minutes before induction) is “Neither dose of cilostazol prolonged the occlusion time”.
As for `CC#CCC(C)[C@H](O)/C=C/[C@@H]1[C@H]2c3cccc(CCCC(=O)O)c3O[C@H]2C[C@H]1O` (mixture of isomers) [beraprost sodium], the vascular occlusion time result in data set [2] (0.3 mg/kg intraduodenal, 30 minutes before induction) is recorded as “not prolonged”; in data set [2] (1 mg/kg intraduodenal, administration 30 minutes before induction, vehicle control about 12 to 15 minutes), “about 43 minutes”. For the same compound, the “reduction in blood pressure” value in data set [2] (0.3 mg/kg intraduodenal, observed over time) was 25%.
